From patent publication US11572548B2, “Reaction mixture for synthesis of alpha1-2-fucosides” (The Regents of the University of California, priority 2015, dated 2023)
“Also recorded” adds a separate entry of the source.

Key:
[1] = molecular target: T1, His6-Te2FT (Thermosynechococcus vestitus, UniProt Q8DK72); assay: Acceptor substrate specificity studies of His6-Te2FT; format: biochemical, Thermosynechococcus elongatus BP-1
[2] = molecular target: T1, His6-Te2FT; assay: Effects of metal ions, DTT and EDTA on α1-2-fucosyltransferase activity; format: biochemical, Thermosynechococcus elongatus BP-1; settings: pH 7.5; for effect on α1-2-fucosyltransferase activity: 10 mM added; for effect on α1-2-fucosyltransferase activity / enhancement of α1-2-fucosyltransferase activity: acceptor Galβ1-3GlcNAcβ2AA; for enhancement of α1-2-fucosyltransferase activity: 5-20 mM added
Experimental: For metal effects, various concentrations (5 mM, 10 mM, or 20 mM) of MgCl2 or MnCl2 were added and EDTA (as a chelating agent) (10 mM) and DTT (10 mM) were used in a Tris-HCl buffer (pH 7.5, 200 mM) to analyze their effects on the α1-2-fucosyltransferase activity of His6-Te2FT for acceptor Galβ1-3GlcNAcβ2AA. Reaction without metal ions, EDTA and DTT was used as a control. The effects of metal ions Mg^2+ and Mn^2+ as well as DTT and the chelating agent EDTA on the α1-2-fucosyltransferase activity of His6-Te2FT toward and acceptor Galβ1-3GlcNAcβ2AA were examined at pH 7.5.

[3] = tested on: Bifidobacterium animalis subsp. lactis (B. lactis) ATCC 27536; assay: Growth of bifidobacteria on mMRS medium with substrate as sole carbohydrate source; format: cell-based; settings: 2% (wt/vol) in mMRS, 37° C., anaerobic, OD600
Experimental: (§1) B. infantis 15697 and B. animalis 27536 were tested for growth in the presence of glucose, HMOS, and LNFP I. Growth assays were performed as previously described.^[35] Briefly, two microliters of each resulting overnight culture was used to inoculate 150 μL of modified MRS medium (mMRS), devoid of glucose and supplemented with 2% (wt/vol) of each sterile-filtered substrate as the sole carbohydrate source. The medium was supplemented with 0.05% (wt/vol) 1-cysteine, and in all the cases the cultures in the wells of the microtiter plates were covered with 30 μL of sterile mineral oil to avoid evaporation. The incubations were carried out at 37° C. in an anaerobic chamber (Coy Laboratory Products). Cell growth was monitored in real time by assessing optical density at 600 nm (OD600) using a BioTek PowerWave 340 plate reader (BioTek, Winoosky, Vt.) every 30 min, preceded by 30 seconds of shaking at variable speed. Two biological replicates and three technical replicates each were performed for every strain. Fermentations were carried out in triplicate.

[4] = tested on: Bifidobacterium longum subsp. infantis (B. infantis) ATCC 15697; assay: as above; format: cell-based; settings: 2% (wt/vol) in mMRS, 37° C., anaerobic, OD600
Experimental: as §1

[5] = molecular target: T1, His6-Te2FT; assay: Kinetics of α1-2-fucosyltransferase activity by HPLC assays; format: biochemical, Thermosynechococcus elongatus BP-1; settings: for Km / kcat: 2FT activity, apparent, pH 6.0, 37° C., MgCl2 20 mM, other substrate fixed at 1 mM
Experimental: Typical enzymatic assays were carried out in duplicate in a total volume of 10 μL in Tris-HCl buffer (pH 6.0, 200 mM) containing MgCl2 (20 mM), GDP-fucose, Galβ1-3GlcNAcβ2AA, and the recombinant His6-Te2FT (0.75 μg). All reactions were allowed to proceed for 10 min at 37° C. Apparent kinetic parameters were obtained by varying the GDP-fucose concentration from 0.1 to 10.0 mM (0.1, 0.2, 0.4, 1.0, 5.0, and 10.0 mM) and a fixed concentration of Galβ1-3GlcNAcβ2AA (1 mM); or a fixed concentration of GDP-fucose (1 mM) and varied concentrations of Galβ1-3GlcNAcβ2AA from 0.1 to 10.0 mM (0.1, 0.2, 0.4, 5.0, and 10.0 mM). The reaction mixture was quenched by boiling for 2 minutes and diluted 60-fold for detection. Apparent kinetic parameters were obtained by fitting the data into the Michaelis-Menten equation using Grafit 5.0.

[6] = molecular target: T1, His6-Te2FT; assay: Kinetics of GDP-fucose hydrolysis by capillary electrophoresis assays; format: biochemical, Thermosynechococcus elongatus BP-1
Experimental: The enzymatic assays were carried out in duplicate in a total volume of 10 μL in Tris-HCl buffer (200 mM, pH 9.0) containing MgCl2 (20 mM), GDP-fucose and the recombinant protein (4.5 μg). Reactions were allowed to proceed for 30 min at 37° C. Apparent kinetic parameters were obtained by varying the final GDP-fucose concentration from 0.4 to 2.0 mM (0.4, 0.5, 0.6, 0.8, 1.0 and 2.0 mM). Apparent kinetic parameters were obtained by fitting the data (the average values of duplicate assay results) into the Michaelis-Menten equation using Grafit 5.0.

[7] = pH profile of α1-2-fucosyltransferase activity of His6-Te2FT by HPLC; format: biochemical
Experimental: Each reaction was carried out in duplicate at 37° C. for 10 minutes in a total volume of 10 μL in a buffer (200 mM) with pH varying from 3.0 to 11.0. The buffers used were: Citric, pH 3.0-4.0, NaOAc/HOAc, pH 4.5, MES, pH 5.0-6.5; Tris-HCl, pH 7.0-9.0; and CAPS, pH 10.0-11.0. The reaction system was: GDP-fucose (1 mM), fluorophore 2-anthranilic acid (2AA)-labeled oligosaccharide (Galβ1-3GlcNAcβ2AA, 1 mM), MgCl2 (20 mM), and the recombinant enzyme, His6-Te2FT (0.25 μg). The reaction mixture was stopped by boiling for 2 min and then adding an equal volume of water (10 μL) to make a […] dilution for Galβ1-3GlcNAcβ2AA. The samples were analyzed by a Shimadzu LC-2010A system equipped with a membrane online degasser, a temperature control unit and a fluorescence detector. A reverse-phase Premier C18 column (250×4.6 mm i.d., 5 μm particle size, Shimadzu) protected with a C18 guard column cartridge was used. The mobile phase was 20% acetonitrile. The ratio of the absorbance for fluorescent-labeled product at 315-400 nm was determined.

[8] = pH profile of GDP-fucose hydrolysis of His6-Te2FT by capillary electrophoresis; format: biochemical
Experimental: Each reaction was carried out in duplicate at 37° C. for 30 minutes in a total volume of 10 μL in a buffer (200 mM) with pH varying from 3.0 to 11.0. The buffers used were: Citric, pH 3.0-4.0, NaOAc/HOAc, pH 4.5, MES, pH 5.0-6.5; Tris-HCl, pH 7.0-9.0; and CAPS, pH 10.0-11.0 containing GDP-fucose (1 mM), MgCl2 (20 mM) and the recombinant enzyme (3.75 μg). Reactions were stopped by boiling for 2 min followed by adding an equal volume of water (10 μL) to make a two-fold dilution. The samples were kept on ice until aliquots of 6 μL were withdrawn and analyzed by a Beckman P/ACE MDQ capillary electrophoresis system (60 cm×75 μm i.d.) with a PDA detector. The ratio of the absorbance for GDP-fucose and GDP at 254 nm was determined at different concentrations (2.5, 5, and 10 mM). All assays were carried out in duplicate.

[9] = Effect of freeze-dry cycle (lyophilization and rehydration) on His6-Te2FT activity; format: biochemical; settings: lyophilized, rehydrated
Experimental: Purified His6-Te2FT samples were prepared essentially as described in Example 1, and were dialyzed against 20 mM Tris-HCl without glycerol and lyophilized. The Te2FT powders were stored at −70° C. for 20 days, or for several months. After that, the dried powder was dissolved in water and 20 mM Tris-HCl buffer, respectively. The activities of the lyophilized His6-Te2FT samples were compared with the same amount and concentration of freshly prepared Te2FT samples. The reaction mixture was GDP-fucose (1 mM), Galβ1-3GlcNAcβ2AA, (1 mM), MgCl2 (20 mM), and His6-Te2FT (0.75 μg). All reactions were performed in duplicate and allowed to proceed for 10 minutes at 37° C.

[10] = Effect of temperature on α1-2-fucosyltransferase activity of His6-Te2FT; format: biochemical
Experimental: Assays were carried out in a total volume of 10 μL in a Tris-HCl buffer (pH 6.0, 200 mM) at temperatures ranging from 15° C. to 70° C. The reaction mixture contained GDP-fucose (1 mM), MgCl2 (20 mM), Galβ1-3GlcNAcβ2AA (1 mM), and the recombinant His6-Te2FT (1.5 μg). All reactions were allowed to proceed for 10 minutes at various temperatures. The reaction was stopped by boiling for 2 minutes, and diluted 60-fold for detection.

[11] = GDP-Fuc hydrolysis, apparent, pH 9.0, 37° C., MgCl2 20 mM
[12] = acceptor Galβ1-3GlcNAcβ2AA, 37° C., 10 minutes

## Gal β1-3GlcNAcβ1-3Galβ1-4Glc [LNT]
[1]
  suitability as acceptor substrate for adding α1-2-linked fucose: excellent acceptor

## Galβ1-4GlcNAcβOR
[1]
  suitability as acceptor substrate for adding α1-2-linked fucose: not good acceptors

## O=C(O)CN(CCN(CC(=O)O)CC(=O)O)CC(=O)O [EDTA, ethylenediaminetetraacetic acid]
[2]
  effect on α1-2-fucosyltransferase activity: decreased its activity only slightly

## Gal1-3GlcNAcαOR
[1]
  suitability as acceptor substrate for adding α1-2-linked fucose: worked well

## [Cl-].[Cl-].[Mg+2] [Mg^2+, MgCl2]
[2]
  enhancement of α1-2-fucosyltransferase activity: about two-fold

## Galβ1-4GlcβOR
[1]
  suitability as acceptor substrate for adding α1-2-linked fucose: not good acceptors

## Galβ1-3GalNAcαOR
[1]
  suitability as acceptor substrate for adding α1-2-linked fucose: worked well

## [Cl][Mn][Cl] [Mn^2+, MnCl2]
[2]
  enhancement of α1-2-fucosyltransferase activity: about two-fold

## Galβ1-3GalNAcβOR
[1]
  suitability as acceptor substrate for adding α1-2-linked fucose: worked well

## O[C@H](CS)[C@H](O)CS (racemic) [DTT, dithiothreitol]
[2]
  effect on α1-2-fucosyltransferase activity: decreased His6-Te2FT activity moderately

## CC(=O)N[C@H]1[C@H](O[C@H]2[C@@H](O)[C@@H](CO)O[C@@H](O[C@H]3[C@H](O)[C@@H](O)C(O)O[C@@H]3CO)[C@@H]2O)O[C@H](CO)[C@@H](O)[C@@H]1O[C@@H]1O[C@H](CO)[C@H](O)[C@H](O)[C@H]1O[C@@H]1O[C@@H](C)[C@@H](O)[C@@H](O)[C@@H]1O (some centres unmarked) [LNFP I, Fucα1-2Galβ1-3GlcNAcβ1-3Galβ1-4Glc]
[3]
  growth with substrate as sole carbon source: failed to grow
[4]
  growth compared with growth on glucose: remarkably faster
  growth with substrate as sole carbon source: grew well; also recorded: selectively consumed as a carbon source

## Galβ1-3GlcNAcβ2AA
[5]
  Km: 790 ± 110 µM
  kcat: 0.333 ± 0.012 s⁻¹
[5]; His6-Te2FT versus other 2FTs
  affinity for the acceptor compared to GST-WbsJ, His6Prop-WgbL and Hp2FT: higher affinity

## Galβ1-3GlcNAcβOR
[1]
  suitability as acceptor substrate for adding α1-2-linked fucose: worked well

## C[C@@H]1O[C@H](OP(=O)(O)OP(=O)(O)OC[C@H]2O[C@@H](n3cnc4c(=O)[nH]c(N)nc43)[C@H](O)[C@@H]2O)[C@@H](O)[C@H](O)[C@@H]1O [GDP-fucose, Guanosine 5′-diphosphate-fucose]
[6]; [11]
  Km: 560 ± 210 µM
  kcat: 0.005 ± 0.001 s⁻¹
[6]; His6-Te2FT, ratio of kcat/KM
  GDP-fucose (donor) hydrolysis activity weaker than α1-2-fucosyltransferase activity: 47 fold
[5]
  Km: 730 ± 680 µM
  kcat: 0.438 ± 0.013 s⁻¹
[5]; His6-Te2FT versus GST-WbsJ, acceptor Galβ1-3GlcNAcβ2AA
  kcat value for GDP-fucose, higher compared to GST-WbsJ: 201 fold
[5]; His6-Te2FT versus His6Prop-WgbL, acceptor Galβ1-3GlcNAcβ2AA
  kcat value for GDP-fucose, higher compared to His6Prop-WgbL: 6.7 fold
[5]; His6-Te2FT versus Hp2FT, acceptor Galβ1-3GlcNAcβ2AA
  kcat value for GDP-fucose, higher compared to Hp2FT: 14.6 fold
[5]; His6-Te2FT versus WbgL
  kcat/KM value for GDP-Fuc, higher than WbgL: 2.5 fold
[5]; His6-Te2FT versus WbsJ
  kcat/KM value for GDP-Fuc, higher than WbsJ: 29.2 fold

B1: His6-Te2FT: N-His6-tagged recombinant α1-2-fucosyltransferase from Thermosynechococcus elongatus BP-1 (SEQ ID NO:1) (protein, listed as Thermosynechococcus elongatus)
chain: MIIVHLCGGLGNQMFQYAAGLAAAHRIGSEVKFDTHWFDATCLHQGLELRRVFGLELPEPSSKDLRKVLGACVHPAVRRLLAGHFLHGLRPKSLVIQPHFHYWTGFEHLPDNVYLEGYWQSERYFSNIADIIRQQFRFVEPLDPHNAALMDEMQSGVSVSLHIRRGDYFNNPQMRRVHGVDLSEYYPAAVATMIEKTNAERFYVFSDDPQWVLEHLKLPVSYTVVDHNRGAASYRDMQLMSACRHHIIANSTFSWWGAWLNPRPDKVVIAPRHWFNVDVFDTRDLYCPGWIVL
modifications: N-terminal His6 tag
[2]
  requirement of a divalent metal ion for α1-2-fucosyltransferase activity: not required
[7]; [12]
  pH of optimal activities: 4.5-6.0
  pH range in which active: 4.0-10.0
[7]; pH 6.5
  activity as % of the optimal activity: About 85%
[8]; 37° C., 30 minutes
  optimal pH for the GDP-fucose hydrolysis activity: 9.5
[8]; pH range 5.0-8.0, 15-fold more enzyme and 3-fold longer reaction time
  donor hydrolysis activity: at a minimum
[9]
  stability to freeze-dry treatment: can survive a freeze-dry treatment
[10]; 15° C. and 20° C.
  activity at low temperature: Low activity
[10]; 65° C. or 70° C.
  activity at high temperature: minimal activity
[10]; pH 6.0, 10 minutes
  temperature range in which active: 25-60 °C
  temperature range of optimal activities: 30-45 °C
